This is an account of results in patent US20140005163A1 (NOVARTIS AG, priority 2010, published 2014).

Assay [1] has as its system PKB Ser473 phosphorylation in Rat1-myr-HA-p110 alpha cells. The experiment in a line: Reverse protein array assay, PKB Ser473 phosphorylation in Rat1-myr-p110 alpha cells. It counts as cell-based. The note with it: 0.5 h, pAkt Ser473, 30 minutes compound incubation, read-out: p-PKB IC50. The gist of the method:
(§1)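 Lysates were arrayed at four dilutions, and phospho-PKB Ser473 was quantified by relative fluorescence signal. They came from Rat1-myr-HA-p110 alpha, beta or delta cells exposed for 30 min at 37 °C to an 8-point compound series with 0.2% DMSO constant.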

A further assay concerns the target T1, mTOR (Homo sapiens, UniProt P42345).
T1 construct: purchased Invitrogen Corporation (Carlsbad/CA, USA) PV4753
The assay can be described thus: Biochemical assay for m-TOR by TR-FRET. The note with it: 8 μM ATP, 400 nM GFP-4EBP1, 0.5 nM mTOR. The gist of the method:
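mTOR (0.5 nM) was incubated at rt with ATP (8 μM final) and GFP-4EBP1 (400 nM final) in 50 mM HEPES pH 7.5, 10 mM MnCl2, 50 mM NaCl, 1 mM EGTA, 1 mM DTT. EDTA stop with Tb3+-anti-p4EBP1 [pThr46] antibody (0.5 nM); TR-FRET read 15 min later.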
Background: Time-resolved FRET reads energy transfer from a long-lived donor to a nearby acceptor.

Assay [2] has as its system PKB Ser473 phosphorylation in Rat1-myr-HA-p110 beta cells. The assay can be described thus: Reverse protein array assay, PKB Ser473 phosphorylation in Rat1-myr-p110 beta cells. The class given is cell-based. The note with it: 0.5 h, pAkt Ser473, 30 minutes incubation, read-out: p-PKB IC50. The gist of the method:
as §1

pIC50: −log10 of the molar value.

T1 sequence (P42345 1360-2549 limits assumed): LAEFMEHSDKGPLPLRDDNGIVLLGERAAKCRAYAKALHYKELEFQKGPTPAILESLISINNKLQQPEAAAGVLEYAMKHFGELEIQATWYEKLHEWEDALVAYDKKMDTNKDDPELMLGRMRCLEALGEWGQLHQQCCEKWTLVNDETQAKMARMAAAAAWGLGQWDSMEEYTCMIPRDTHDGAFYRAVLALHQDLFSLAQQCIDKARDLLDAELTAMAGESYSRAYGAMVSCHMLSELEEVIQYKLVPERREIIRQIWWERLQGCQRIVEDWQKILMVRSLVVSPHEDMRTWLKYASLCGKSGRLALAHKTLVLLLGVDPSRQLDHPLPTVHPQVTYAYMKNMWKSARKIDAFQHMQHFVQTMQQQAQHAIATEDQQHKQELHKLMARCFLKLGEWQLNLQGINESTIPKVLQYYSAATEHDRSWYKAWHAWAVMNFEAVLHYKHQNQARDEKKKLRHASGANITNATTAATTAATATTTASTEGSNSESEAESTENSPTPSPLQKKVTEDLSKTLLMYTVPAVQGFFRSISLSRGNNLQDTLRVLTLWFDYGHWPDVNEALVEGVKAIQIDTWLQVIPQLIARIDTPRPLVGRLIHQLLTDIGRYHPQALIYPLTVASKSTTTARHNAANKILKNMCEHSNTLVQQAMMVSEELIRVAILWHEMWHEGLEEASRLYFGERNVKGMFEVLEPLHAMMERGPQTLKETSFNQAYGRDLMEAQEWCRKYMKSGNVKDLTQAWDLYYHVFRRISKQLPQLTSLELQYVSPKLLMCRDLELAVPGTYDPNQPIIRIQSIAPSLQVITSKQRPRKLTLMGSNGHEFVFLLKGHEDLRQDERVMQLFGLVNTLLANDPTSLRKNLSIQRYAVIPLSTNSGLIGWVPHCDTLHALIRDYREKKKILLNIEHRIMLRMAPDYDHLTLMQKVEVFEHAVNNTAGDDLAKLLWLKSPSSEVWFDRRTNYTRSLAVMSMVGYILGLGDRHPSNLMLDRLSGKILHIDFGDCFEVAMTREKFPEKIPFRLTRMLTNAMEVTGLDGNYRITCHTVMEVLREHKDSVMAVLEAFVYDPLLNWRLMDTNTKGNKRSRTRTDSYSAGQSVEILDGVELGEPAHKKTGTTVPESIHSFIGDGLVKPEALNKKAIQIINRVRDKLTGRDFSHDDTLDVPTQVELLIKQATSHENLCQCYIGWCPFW

The pIC50 is the negative decadic logarithm of the IC50, by convention in mol/L. In the case of `CN(C)c1ccc(-c2ccc3ncc4c(c3c2)n(-c2cn(C)nc2Cl)c(=O)n4C)cn1` [Example 4.9, 1-(3-Chloro-1-methyl-1H-pyrazol-4-yl)-8-(6-dimethylamino-pyridin-3-yl)-3-methyl-1,3-dihydro-imidazo[4,5-c]quinolin-2-one], the pIC50 in assay [1] is 8.30; at mTOR, 7.96; in assay [2], 8.22.
The matching figures for `CN(C)c1ncc(-c2ccc3ncc4c(c3c2)n(-c2cn(C)nc2Cl)c(=O)n4C)cn1` [Example 6.3, 1-(3-Chloro-1-methyl-1H-pyrazol-4-yl)-8-(2-dimethylamino-pyrimidin-5-yl)-3-methyl-1,3-dihydro-imidazo[4,5-c]quinolin-2-one]: 8.05, 8.30 and 7.82.
Regarding `Cc1nn(C)cc1-n1c(=O)n(C)c2cnc3ccc(-c4cnc(N)c(C(F)(F)F)c4)cc3c21` [Example 25.1, 8-(6-Amino-5-trifluoromethyl-pyridin-3-yl)-1-(1,3-dimethyl-1H-pyrazol-4-yl)-3-methyl-1,3-dihydro-imidazo[4,5-c]quinolin-2-one], the values for the pIC50 (in assay [1]; at mTOR; in assay [2]) were 8.30, 8.05 and 8.22, respectively.
The matching figures for `Cc1cc(-n2c(=O)n(C)c3cnc4ccc(-c5cnc(N)c(C(F)(F)F)c5)cc4c32)n(C)n1` [Example 25.6, 8-(6-Amino-5-trifluoromethyl-pyridin-3-yl)-1-(2,5-dimethyl-2H-pyrazol-3-yl)-3-methyl-1,3-dihydro-imidazo[4,5-c]quinolin-2-one]: 8.10, 7.09 and 7.82.
In the case of `CNS(=O)(=O)c1cccc(-c2ccc3ncc4c(c3c2)n(-c2cn(C)nc2C)c(=O)n4C)c1` [Example 39, 3-[1-(1,3-Dimethyl-1H-pyrazol-4-yl)-3-methyl-2-oxo-2,3-dihydro-1H-imidazo[4,5-c]quinolin-8-yl]-N-methyl-benzenesulfonamide], the pIC50 in assay [1] was 7.46; on mTOR, 7.16; in assay [2], 7.19.
For `Cc1nn(C)cc1-n1c(=O)n(C)c2cnc3ccc(-c4cccc(NS(C)(=O)=O)c4)cc3c21` [Example 47, N-{3-[1-(1,3-dimethyl-1H-pyrazol-4-yl)-3-methyl-2-oxo-2,3-dihydro-1H-imidazo[4,5-c]quinolin-8-yl]-phenyl}-methanesulfonamide], in that order: 7.14, 6.55 and 6.71.
`CC(C)Oc1cncc(-c2ccc3ncc4c(c3c2)n(-c2cn(C)nc2Cl)c(=O)n4C)c1` [Example 58.2, 1-(3-Chloro-1-methyl-1H-pyrazol-4-yl)-8-(5-isopropoxy-pyridin-3-yl)-3-methyl-1,3-dihydro-imidazo[4,5-c]quinolin-2-one]: the pIC50 in assay [1] was 8.05; on mTOR, 8.52; in assay [2], 7.85.
`Cc1nn(C)cc1-n1c(=O)n(C)c2cnc3ccc(-c4cncc(OC5CCC5)c4)cc3c21` [Example 60.1, 8-(5-Cyclobutoxy-pyridin-3-yl)-1-(1,3-dimethyl-1H-pyrazol-4-yl)-3-methyl-1,3-dihydro-imidazo[4,5-c]quinolin-2-one]: the pIC50 was > 8.30 in assay [1], 8.30 at mTOR and 7.64 in assay [2].
For `Cc1nn(C)cc1-n1c(=O)n(C)c2cnc3ccc(-c4ccc(-c5ncc[nH]5)cc4)cc3c21` [Example 77, 1-(1,3-Dimethyl-1H-pyrazol-4-yl)-8-[4-(1H-imidazol-2-yl)-phenyl]-3-methyl-1,3-dihydro-imidazo[4,5-c]quinolin-2-one], in that order: 8.15, > 8.52 and 8.10.
Regarding `Cc1nn(C)cc1-n1c(=O)n(C)c2cnc3ccc(-c4cccc(OC(C)C)c4)cc3c21` [Example 82, 1-(1,3-Dimethyl-1H-pyrazol-4-yl)-8-(3-isopropoxy-phenyl)-3-methyl-1,3-dihydro-imidazo[4,5-c]quinolin-2-one], the values for the pIC50 (in assay [1]; at mTOR; in assay [2]) were 7.36, 7.57 and 6.55, respectively.
For `CCN(CC)c1cncc(-c2ccc3ncc4c(c3c2)n(-c2cn(C)nc2C)c(=O)n4C)c1` [Example 95, 8-(5-Diethylamino-pyridin-3-yl)-1-(1,3-dimethyl-1H-pyrazol-4-yl)-3-methyl-1,3-dihydro-imidazo[4,5-c]quinolin-2-one], in that order: > 8.30, 7.70 and 7.77.
Regarding `Cc1nn(C)cc1-n1c(=O)n(C)c2cnc3ccc(-c4ccc(N5CCCC5)nc4)cc3c21` [Example 97, 1-(1,3-Dimethyl-1H-pyrazol-4-yl)-3-methyl-8-(6-pyrrolidin-1-yl-pyridin-3-yl)-1,3-dihydro-imidazo[4,5-c]quinolin-2-one], the values for the pIC50 (in assay [1]; on mTOR; in assay [2]) were 8.15, 8.15 and 7.77, respectively.
In the case of `CNc1ncc(-c2ccc3ncc4c(c3c2)n(-c2cn(C)nc2Cl)c(=O)n4C)cc1C` [Example 119, 1-(3-Chloro-1-methyl-1H-pyrazol-4-yl)-3-methyl-8-(5-methyl-6-methylamino-pyridin-3-yl)-1,3-dihydro-imidazo[4,5-c]quinolin-2-one], the pIC50 in assay [1] is 8.22; on mTOR it was > 8.52; in assay [2] it was 8.00.
The matching figures for `Cc1nn(C)cc1-n1c(=S)n(C)c2cnc3ccc(-c4cccnc4)cc3c21` [Example 128.1, 1-(1,3-Dimethyl-1H-pyrazol-4-yl)-3-methyl-8-pyridin-3-yl-1,3-dihydro-imidazo[4,5-c]quinoline-2-thione]: 8.30, 7.16 and 7.57.
For `COc1ccc(-c2ccc3ncc4c(c3c2)n(-c2cn(C)nc2C)c(=S)n4C)cc1OC` [Example 128.2, 8-(3,4-Dimethoxy-phenyl)-1-(1,3-dimethyl-1H-pyrazol-4-yl)-3-methyl-1,3-dihydro-imidazo[4,5-c]quinoline-2-thione], in that order: > 8.30, 7.92 and 8.22.
Regarding `CNc1ncc(-c2ccc3ncc4c(c3c2)n(-c2cn(C(C)C)nc2C)c(=O)n4C)cc1C(F)(F)F` [Example 144.2, 1-(1-Isopropyl-3-methyl-1H-pyrazol-4-yl)-3-methyl-8-(6-methylamino-5-trifluoromethyl-pyridin-3-yl)-1,3-dihydro-imidazo[4,5-c]quinolin-2-one], the pIC50 is > 8.30 in assay [1], > 8.52 at mTOR and 7.92 in assay [2].
The matching figures for `CCNc1ncc(-c2ccc3ncc4c(c3c2)n(-c2cn(C)nc2C)c(=O)n4C)cc1C(F)(F)F` [Example 145.2, 1-(1,3-Dimethyl-1H-pyrazol-4-yl)-8-(6-ethylamino-5-trifluoromethyl-pyridin-3-yl)-3-methyl-1,3-dihydro-imidazo[4,5-c]quinolin-2-one]: 8.05, 7.80 and 7.89.
The matching figures for `CCn1cc(-n2c(=O)n(C)c3cnc4ccc(-c5cnc(N)c(Cl)c5)cc4c32)c(C)n1` [Example 148.3, 8-(6-Amino-5-chloro-pyridin-3-yl)-1-(1-ethyl-3-methyl-1H-pyrazol-4-yl)-3-methyl-1,3-dihydro-imidazo[4,5-c]quinolin-2-one]: > 8.30, 7.92 and 8.00.
In the case of `Cc1cc(-n2c(=O)n(C)c3cnc4ccc(-c5cnc(F)c(N)c5)cc4c32)n(C)n1` [Example 149.3, 8-(5-Amino-6-fluoro-pyridin-3-yl)-1-(2,5-dimethyl-2H-pyrazol-3-yl)-3-methyl-1,3-dihydro-imidazo[4,5-c]quinolin-2-one], the pIC50 in assay [1] was 7.31; on mTOR, 6.68; in assay [2], 7.08.
For `Cc1nn(C(C)C)cc1-n1c(=O)n(C)c2cnc3ccc(-c4cnc(Cl)c(N)c4)cc3c21` [Example 152.1, 8-(5-Amino-6-chloro-pyridin-3-yl)-1-(1-isopropyl-3-methyl-1H-pyrazol-4-yl)-3-methyl-1,3-dihydro-imidazo[4,5-c]quinolin-2-one], in that order: 8.15, 7.89 and 8.22.
The matching figures for `Cc1nn(C)c(C)c1-n1c(=O)n(C)c2cnc3ccc(-c4cnc(Cl)c(N)c4)cc3c21` [Example 152.3, 8-(5-Amino-6-chloro-pyridin-3-yl)-3-methyl-1-(1,3,5-trimethyl-1H-pyrazol-4-yl)-1,3-dihydro-imidazo[4,5-c]quinolin-2-one]: 6.91, 6.72 and 6.95.
The matching figures for `CCOCc1cc(-c2ccc3ncc4c(c3c2)n(-c2cn(C(C)C)nc2C)c(=O)n4C)cnc1N` [Example 166.3, 8-(6-Amino-5-ethoxymethyl-pyridin-3-yl)-1-(1-isopropyl-3-methyl-1H-pyrazol-4-yl)-3-methyl-1,3-dihydro-imidazo[4,5-c]quinolin-2-one]: 7.40, 7.26 and 6.92.
As for `CCOCc1cc(-c2ccc3ncc4c(c3c2)n(-c2cn(C)nc2Cl)c(=O)n4C)cnc1N` [Example 166.4, 8-(6-Amino-5-ethoxymethyl-pyridin-3-yl)-1-(3-chloro-1-methyl-1H-pyrazol-4-yl)-3-methyl-1,3-dihydro-imidazo[4,5-c]quinolin-2-one], the pIC50 is 8.30 in assay [1], 7.80 at mTOR and 7.96 in assay [2].
